Source: patent US9216991B2 (Ares Trading S.A., priority 2012, dated 2015)
Where a name gives a salt, the structure may show the parent alone.

What follows are compounds tested against T1, IRAK4 (Homo sapiens, UniProt Q9NWZ3) (assay: IRAK4 Enzymatic Assay). Settings: His-TEV-IRAK4 20 ng/well, ATP 2 μM, STK1-biotin peptide 300 nM, 3 hours at 30° C., FlashPlate radioactivity.
T1 construct: His (N); TEV cleavage site (N)
T1 sequence (Q9NWZ3 1-460): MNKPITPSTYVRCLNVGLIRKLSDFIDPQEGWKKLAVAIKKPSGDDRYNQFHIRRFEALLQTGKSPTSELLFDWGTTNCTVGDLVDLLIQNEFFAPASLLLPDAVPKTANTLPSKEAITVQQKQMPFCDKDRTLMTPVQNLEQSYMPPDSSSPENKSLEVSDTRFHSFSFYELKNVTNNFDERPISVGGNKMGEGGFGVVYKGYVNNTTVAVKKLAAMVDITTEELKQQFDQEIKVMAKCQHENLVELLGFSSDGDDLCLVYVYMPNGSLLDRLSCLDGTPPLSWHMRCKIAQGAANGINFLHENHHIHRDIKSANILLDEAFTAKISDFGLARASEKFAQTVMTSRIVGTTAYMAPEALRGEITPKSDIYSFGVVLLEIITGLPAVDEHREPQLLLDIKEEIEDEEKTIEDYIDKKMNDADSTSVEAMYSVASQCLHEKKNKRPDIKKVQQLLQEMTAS
Assay type: biochemical
Outline: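 Recombinant His-TEV-tagged IRAK4 (20 ng/well) phosphorylates biotinylated STK1 peptide (300 nM) with 2 μM ATP plus [^33P]ATP, 3 h at 30 °C in pH 7.0 HEPES buffer with MgCl2 and MnCl2; compounds tested 20 μM to 1 nM. Reaction stopped with EDTA; incorporated radioactivity counted on streptavidin FlashPlates.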

| IC50 [µM] | SMILES |
| --- | --- |
| 0.1 to 1 | Cn1cc(-c2cccc(-c3ncc(-c4cnn(C5CCC(=O)CC5)c4)cn3)c2)cn1 [Example 189, 4-(4-{2-[3-(1-Methyl-1H-pyrazol-4-yl)-phenyl]-pyrimidin-5-yl}-pyrazol-1-yl)-cyclohexanone] |
| 0.1 to 1 | Cn1cc(-c2cccc(-c3ncc(-c4cnn(C5CCN(C(=O)C(F)(F)F)CC5)c4)cn3)c2)cn1 [Example 4, 2,2,2-Trifluoro-1-[4-(4-{2-[3-(1-methyl-1H-pyrazol-4-yl)-phenyl]-pyrimidin-5-yl}-pyrazol-1-yl)-piperidin-1-yl]-ethanone] |
| 0.1 to 1 | Cn1cc(-c2cccc(-c3ncc(-c4cnn(C5CCN(C(=O)CC(F)(F)F)CC5)c4)cn3)c2)cn1 [Example 114, 3,3,3-Trifluoro-1-[4-(4-{2-[3-(1-methyl-1H-pyrazol-4-yl)-phenyl]-pyrimidin-5-yl}-pyrazol-1-yl)-piperidin-1-yl]-propan-1-one] |
| < 0.1 | CN1[C@@H]2CC[C@H]1C[C@H](n1cc(-c3cnc(-c4cccc(-c5cnn(C)c5)c4)nc3)cn1)C2 [Example 61, (3-exo)-8-Methyl-3-(4-{2-[3-(1-methyl-1H-pyrazol-4-yl)-phenyl]-pyrimidin-5-yl}-pyrazol-1-yl)-8-aza-bicyclo[3.2.1]octane] |
| < 0.1 | Cn1cc(-c2cccc(-c3ncc(-c4cnn([C@H]5CC[C@H](C(=O)N6CC[C@H](O)C6)CC5)c4)cn3)c2)cn1 [Example 205, trans-((S)-3-Hydroxy-pyrrolidin-1-yl)-[4-(4-{2-[3-(1-methyl-1H-pyrazol-4-yl)-phenyl]-pyrimidin-5-yl}-pyrazol-1-yl)-cyclohexyl]-methanone] |
| 0.1 to 1 | Cn1cc(-c2cccc(-c3ncc(-c4cnn(CC(=O)N5CCC6(CC5)COC6)c4)cn3)c2)cn1 [Example 86, 2-(4-{2-[3-(1-Methyl-1H-pyrazol-4-yl)-phenyl]-pyrimidin-5-yl}-pyrazol-1-yl)-1-(2-oxa-7-aza-spiro[3.5]non-7-yl)-ethanone] |
| 0.1 to 1 | Cn1cc(-c2cccc(-c3ncc(-c4cnn(Cc5cccnc5)c4)cn3)c2)cn1 [Example 22, 2-[3-(1-Methyl-1H-pyrazol-4-yl)-phenyl]-5-(1-pyridin-3-ylmethyl-1H-pyrazol-4-yl)-pyrimidine] |
| 0.1 to 1 | CN1CCCC1CCn1cc(-c2cnc(-c3cccc(-c4cnn(C)c4)c3)nc2)cn1 (stereo not drawn) [Example 64, 2-[3-(1-Methyl-1H-pyrazol-4-yl)-phenyl]-5-{1-[2-(1-methyl-pyrrolidin-2-yl)-ethyl]-1H-pyrazol-4-yl}-pyrimidine] |
| 0.1 to 1 | Cn1cc(-c2cccc(-c3ncc(-c4cnn(C5C6COCC5CC(CO)C6)c4)cn3)c2)cn1 (stereo not drawn) [Example 276, [9-(4-{2-[3-(1-Methyl-1H-pyrazol-4-yl)-phenyl]-pyrimidin-5-yl}-pyrazol-1-yl)-3-oxa-bicyclo[3.3.1]non-7-yl]-methanol] |
| 0.1 to 1 | Cn1cc(-c2cccc(-c3ncc(-c4cnn(C5CCCC5O)c4)cn3)c2)cn1 (stereo not drawn) [Example 211, 2-(4-{2-[3-(1-Methyl-1H-pyrazol-4-yl)-phenyl]-pyrimidin-5-yl}-pyrazol-1-yl)-cyclopentanol] |
| 1 to 5 | COC1CN(C(=O)CCn2cc(-c3cnc(-c4cccc(-c5cnn(C)c5)c4)nc3)cn2)C1 [Example 100, 1-(3-Methoxy-azetidin-1-yl)-3-(4-{2-[3-(1-methyl-1H-pyrazol-4-yl)-phenyl]-pyrimidin-5-yl}-pyrazol-1-yl)-propan-1-one] |
| < 0.1 | CO[C@H]1CC[C@@H](n2cc(-c3cnc(-c4cccc(-c5cnn(C)c5)c4)nc3)cn2)CC1 [Example 252, Cis-5-[1-(4-Methoxy-cyclohexyl)-1H-pyrazol-4-yl]-2-[3-(1-methyl-1H-pyrazol-4-yl)-phenyl]-pyrimidine] |
| 0.1 to 1 | CCCn1cc(-c2cccc(-c3ncc(-c4cnn(C5CCNCC5)c4)cn3)c2)cn1 [Example 19, 5-(1-Piperidin-4-yl-1H-pyrazol-4-yl)-2-[3-(1-propyl-1H-pyrazol-4-yl)-phenyl]-pyrimidine hydrochloride] |
| 0.1 to 1 | Cn1cc(-c2cccc(-c3ncc(-c4cnn(CCN5CCCC5)c4)cn3)c2)cn1 [Example 58, 2-[3-(1-Methyl-1H-pyrazol-4-yl)-phenyl]-5-[1-(2-pyrrolidin-1-yl-ethyl)-1H-pyrazol-4-yl]-pyrimidine] |
| 0.1 to 1 | Cc1c(-c2cccc(-c3ncc(-c4cnn(C5CCNCC5)c4)cn3)c2)cnn1C [Example 15, 2-[3-(1,5-Dimethyl-1H-pyrazol-4-yl)-phenyl]-5-(1-piperidin-4-yl-1H-pyrazol-4-yl)-pyrimidine hydrochloride] |
| 0.1 to 1 | CN(C(=O)Cn1cc(-c2cnc(-c3cccc(-c4cnn(C)c4)c3)nc2)cn1)C1COC1 [Example 145, N-Methyl-2-(4-{2-[3-(1-methyl-1H-pyrazol-4-yl)-phenyl]-pyrimidin-5-yl}-pyrazol-1-yl)-N-oxetan-3-yl-acetamide] |
| 1 to 5 | O=C(Cn1cc(-c2cnc(-c3cccc(-c4ccncc4)c3)nc2)cn1)N1CCOCC1 [Example 68, 1-Morpholin-4-yl-2-{4-[2-(3-pyridin-4-yl-phenyl)-pyrimidin-5-yl]-pyrazol-1-yl}-ethanone] |
| 1 to 5 | Cn1cc(-c2cccc(-c3ncc(-c4cn(C5CCOCC5)nc4C(=O)O)cn3)c2)cn1 [Example 140, 4-{2-[3-(1-Methyl-1H-pyrazol-4-yl)-phenyl]-pyrimidin-5-yl}-1-(tetrahydro-pyran-4-yl)-1H-pyrazole-3-carboxylic acid] |
| 0.1 to 1 | CN1[C@@H]2CCC[C@H]1C[C@H](n1cc(-c3cnc(-c4cccc(-c5cnn(C)c5)c4)nc3)cn1)C2 [Example 142, Exo-9-Methyl-3-(4-{2-[3-(1-methyl-1H-pyrazol-4-yl)-phenyl]-pyrimidin-5-yl}-pyrazol-1-yl)-9-aza-bicyclo[3.3.1]nonane] |
| 0.1 to 1 | CNC(=O)C1CC(n2cc(-c3cnc(-c4cccc(-c5cnn(C)c5)c4)nc3)cn2)C1 (stereo not drawn) [Example 157, 3-(4-{2-[3-(1-Methyl-1H-pyrazol-4-yl)-phenyl]-pyrimidin-5-yl}-pyrazol-1-yl)-cyclobutanecarboxylic acid methylamide] |
| 0.1 to 1 | O=C(Cn1cc(-c2cnc(-c3cccc(-c4cnco4)c3)nc2)cn1)N1CCOCC1 [Example 78, 1-Morpholin-4-yl-2-{4-[2-(3-oxazol-5-yl-phenyl)-pyrimidin-5-yl]-pyrazol-1-yl}-ethanone] |
| < 0.1 | Cn1cc(-c2cccc(-c3ncc(-c4cnn(C5CC6COCC(C5)N6)c4)cn3)c2)cn1 (stereo not drawn) [Example 179, 7-(4-{2-[3-(1-Methyl-1H-pyrazol-4-yl)-phenyl]-pyrimidin-5-yl}-pyrazol-1-yl)-3-oxa-9-aza-bicyclo[3.3.1]nonane] |
| < 0.1 | Cn1cc(-c2cccc(-c3ncc(-c4cnn(C5CCN(C6CCOCC6)CC5)c4)cn3)c2)cn1 [Example 39, 2-[3-(1-Methyl-1H-pyrazol-4-yl)-phenyl]-5-{1-[1-(tetrahydro-pyran-4-yl)-piperidin-4-yl]-1H-pyrazol-4-yl}-pyrimidine] |
| 0.1 to 1 | CC(=O)N1CC[C@H](n2cc(-c3cnc(-c4cccc(-c5cnn(C)c5)c4)nc3)cn2)[C@@H](O)C1 (single isomer, unassigned) [Example 202] |
| 1 to 5 | Cn1cc(-c2cccc(-c3ncc(-c4cn(C5CCOCC5)nc4C(=O)NCCO)cn3)c2)cn1 [Example 154, 4-{2-[3-(1-Methyl-1H-pyrazol-4-yl)-phenyl]-pyrimidin-5-yl}-1-(tetrahydro-pyran-4-yl)-1H-pyrazole-3-carboxylic acid (2-hydroxy-ethyl)-amide] |
| 1 to 5 | Cn1cc(-c2cccc(-c3ncc(-c4cn(C5CCOCC5)nc4C(=O)N4CC(O)C4)cn3)c2)cn1 [Example 153, (3-Hydroxy-azetidin-1-yl)-[4-{2-[3-(1-methyl-1H-pyrazol-4-yl)-phenyl]-pyrimidin-5-yl}-1-(tetrahydro-pyran-4-yl)-1H-pyrazol-3-yl]-methanone] |
| < 0.1 | CN1CC2CC1CN2C(=O)[C@H]1CC[C@H](n2cc(-c3cnc(-c4cccc(-c5cnn(C)c5)c4)nc3)cn2)CC1 (stereo partly drawn) [Example 278, (5-Methyl-2,5-diaza-bicyclo[2.2.1]hept-2-yl)-trans-[4-(-4-{2-[3-(1-methyl-1H-pyrazol-4-yl)-phenyl]-pyrimidin-5-yl}-pyrazol-1-yl)-cyclohexyl]-methanone hydrobromide] |
| 0.1 to 1 | CC1CN(C(=O)Cn2cc(-c3cnc(-c4cccc(-c5cnn(C)c5)c4)nc3)cn2)CCO1 (stereo not drawn) [Example 80, 1-(2-Methyl-morpholin-4-yl)-2-(4-{2-[3-(1-methyl-1H-pyrazol-4-yl)-phenyl]-pyrimidin-5-yl}-pyrazol-1-yl)-ethanone] |
| < 0.1 | C[C@H](CO)NC(=O)[C@H]1CC[C@H](n2cc(-c3cnc(-c4cccc(-c5cnn(C)c5)c4)nc3)cn2)CC1 [Example 199, Trans-4-(4-{2-[3-(1-Methyl-1H-pyrazol-4-yl)-phenyl]-pyrimidin-5-yl}-pyrazol-1-yl)-cyclohexanecarboxylic acid ((R)-2-hydroxy-1-methyl-ethyl)-amide] |
| 0.1 to 1 | CN(C)C(=O)[C@H]1CC[C@H](n2cc(-c3cnc(-c4cccc(-c5ccc(N)nn5)c4)nc3)cn2)CC1 [Example 239, Trans-4-(4-{2-[3-(6-Amino-pyridazin-3-yl)-phenyl]-pyrimidin-5-yl}-pyrazol-1-yl)-cyclohexanecarboxylic acid dimethylamide] |
